Test results as given in patent US20240376091A1, “THIADIAZOLEAMIDE DERIVATIVES AND THEIR APPLICATIONS” (ZHEJIANG UNIVERSITY, priority 2021, published 2024).

Columns and labels:
LBP of AR-LBD = molecular target: T1, LBP of AR-LBD (Rattus norvegicus, UniProt P15207); test: AR competitive ligand binding assay (PolarScreen Androgen Receptor Competitor Assay Kit, fluorescence polarization); settings: A-1 at 12.5 μM-200 μM; 4 hours incubation
T1 construct: a buffer containing AR-LBD (His-GST) and fluorescence ligand; purchased
T1 sequence (P15207 651-882 limits assumed): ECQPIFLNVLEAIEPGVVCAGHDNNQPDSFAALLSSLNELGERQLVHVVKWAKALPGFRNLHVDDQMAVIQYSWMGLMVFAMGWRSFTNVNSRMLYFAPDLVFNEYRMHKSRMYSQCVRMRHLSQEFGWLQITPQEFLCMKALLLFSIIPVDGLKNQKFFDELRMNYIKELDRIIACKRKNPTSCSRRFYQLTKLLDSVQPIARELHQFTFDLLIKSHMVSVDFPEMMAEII
Procedure: Detection principles: The binding affinities of compounds to the LBP of AR-LBD were evaluated using PolarScreen™ Androgen Receptor Competitor Assay Kit. […] The addition of a test compound to a microporous plate containing the binary complex would reduce fluorescence polarization values if the compound could target LBP of AR-LBD by competing the fluorescence ligand.
After 4 hours incubation in darkness at room temperature, the fluorescence polarization values were determined using a multifunctional microplate reader.

AR-LBD protein = molecular target: T2, AR-LBD protein (Homo sapiens, UniProt P10275); test: Biolayer interferometry (BLI) direct interaction; type: binding; settings: A-1 2.06-500 μM, biotinylated AR-LBD
T2 construct: The biotinylated AR-LBD protein was dissolved in the buffer
T2 sequence (P10275 669-900 limits assumed): T1 sequence (P15207 651-882 limits assumed)
Procedure: Detection principles: The BLI technique can detect the interactions by monitoring the change of the interference spectrum in the sensor surface. BLI can quantitatively determine the binding and dissociation processes of a ligand to the target loaded sensor, by analyzing changes in the interference spectrum. Therefore, the direct interaction between ligand and target protein can be quantitatively detected.
Methods: The biotinylated AR-LBD protein was dissolved in the buffer of phosphate-buffered saline with 1% dimethyl sulfoxide. 200 μL of AR-LBD protein in the buffer was loaded onto sensors and equilibrated for 300 seconds. The kinetics of association between AR-LBD and A-1 were determined by soaking the AR-LBD loaded sensors into wells containing different concentrations of A-1 for 300 seconds, followed by soaking the sensors in the buffer for 180 seconds allow for dissociation. Finally, the ForteBio data analysis software was applied to calculate the kinetic binding constants (Ka, Kd, KD).

AR-LBD dimer = molecular target: T3, AR-LBD dimer (Homo sapiens, UniProt P10275); test: Small-angle X-ray scattering (SAXS) of AR-LBD dimerization; settings: AR-LBD 35 μM, DHT 10 μM, Enzalutamide 105 μM, A-1 105 μM
T3 sequence (P10275 669-900 limits assumed): T1 sequence (P15207 651-882 limits assumed)
Excerpt: Detection principles: SAXS is a vital technique for detecting conformational changes of biomacromolecule by quantitatively evalucate the overall dimension and shape silhouette of biomacromolecule.
The SAXS scattering signal were collected for 20 frames (1 second exposure time) using the BL19U2 beamline. The ATSAS software were applied to analysis the results.

FL-AR^WT = molecular target: T4, FL-AR^WT (Homo sapiens, UniProt P10275); test: Luciferase reporter assay in PC3 cells, wild type AR; type: cell-based; settings: read-out: IC50 toward FL-AR^WT
T4 construct: toward full-length (FL)-AR^WT and FL-AR^V684A; expressed in transfected cells; host or cells: PC3
T4 sequence (P10275 1-920): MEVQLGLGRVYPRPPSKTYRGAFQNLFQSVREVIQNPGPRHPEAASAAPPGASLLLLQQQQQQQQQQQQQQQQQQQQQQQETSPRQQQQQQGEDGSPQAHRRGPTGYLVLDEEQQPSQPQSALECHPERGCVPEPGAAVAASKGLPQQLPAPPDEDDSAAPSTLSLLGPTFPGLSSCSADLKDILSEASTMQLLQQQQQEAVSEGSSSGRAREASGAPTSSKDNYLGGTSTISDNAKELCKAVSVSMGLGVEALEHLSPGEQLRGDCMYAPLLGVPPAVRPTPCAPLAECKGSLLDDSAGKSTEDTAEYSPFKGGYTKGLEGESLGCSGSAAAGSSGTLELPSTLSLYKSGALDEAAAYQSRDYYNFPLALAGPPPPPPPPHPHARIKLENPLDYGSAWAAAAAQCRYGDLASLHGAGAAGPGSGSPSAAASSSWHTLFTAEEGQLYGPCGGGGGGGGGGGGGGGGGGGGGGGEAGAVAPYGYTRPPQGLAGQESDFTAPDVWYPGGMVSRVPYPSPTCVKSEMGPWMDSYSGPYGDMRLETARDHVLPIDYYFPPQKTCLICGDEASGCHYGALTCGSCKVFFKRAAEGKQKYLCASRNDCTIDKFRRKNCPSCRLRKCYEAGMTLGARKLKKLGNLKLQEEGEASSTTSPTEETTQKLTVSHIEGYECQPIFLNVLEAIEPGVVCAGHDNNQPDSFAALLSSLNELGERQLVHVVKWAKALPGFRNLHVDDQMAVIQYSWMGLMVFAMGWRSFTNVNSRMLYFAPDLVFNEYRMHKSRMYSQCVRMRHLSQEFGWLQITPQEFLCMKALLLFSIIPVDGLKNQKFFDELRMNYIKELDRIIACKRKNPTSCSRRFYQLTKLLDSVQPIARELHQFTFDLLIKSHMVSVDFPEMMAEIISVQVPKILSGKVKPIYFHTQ
Procedure: Detection principles: A reporter system for detecting the activities of firefly luciferase. To quantitatively detect the interaction between transcription factors and target promoters, the fluorescent intensities are detected to quantitatively evaluate the activities of firefly luciferase.
Methods: PC3 cells (no endogenous AR) treated with DMEM media supplemented with 5% CSS for 48 hours. Then, the PC3 cells (1.2×10^4/well) were seeded into 96-well plates. After 16 hours, the PC3 cells were transfected with 20 ng/well plasmid and incubated for 20 min at room temperature. After 1 day incubation, the media in the wells was replaced, followed by the addition of various concentrations of compounds. After 48 hours, the culture medium was discarded and the cells were washed with 100 μL PBS, followed by addition of 30 μL 1×PLB and the 96-well plates was shaken on a shaker for 20 min to ensure complete lysis of the cells. Then, the cell lysis supernatant (20 μL/well) was transferred to a white opaque 96-well, and addition of 30 μL Luciferase Assay Reagent II to each well. Then, the fluorescent intensities of firefly luciferase were evaluated. Afterwards, 30 μL Stop&Glo Reagant was added to the wells, and the fluorescent intensities of […] evaluated.

Q: Which results are given for `CC(=O)Cc1nsc(NC(=O)c2cc(-c3cccc(C(F)(F)F)c3)oc2C)n1` [Compound A-1, 2-Methyl-N-(3-(2-oxopropyl)-1,2,4-thiadiazol-5-yl)-5-(3-(trifluoromethyl)phenyl)furan-3-carboxamide]?
A: binding to the AR LBP (LBP of AR-LBD): did not bind to the AR LBP; Kd (AR-LBD protein): 143 µM; AR-LBD dimerization (AR-LBD dimer): inhibits AR-LBD dimerization; IC50 (FL-AR^WT): 1.84 µM
